Test results taken from publication PMC7073229, “Novel Quinoline Compounds Active in Cancer Cells through Coupled DNA Methyltransferase Inhibition and Degradation” (Cancers, 2020).
Read-outs that look alike come from different tables or passages of the source.

Key:
U937 cells = assay: Sub-G1 peak, cell cycle flow cytometry; format: cell-based, human; conditions: U937, 1 µM; for effect on sub-G1 peaks vs untreated cells: 24 and 48 h
Protocol: Cell cycle analysis was performed on 5 × 10^5 fixed cells resuspended in a RNase A (3 mg/mL) and propidium iodide (PI) solution (1 mg/mL). Samples were analyzed with a C6 Accuri BD (Becton Dickinson & Co., San Jose, CA, USA). The percentage of apoptosis was measured analyzing sub-G1 peaks. Apoptotic cell death was also evaluated by using annexin V–fluorescein isothiocyanate (FITC) apoptosis kit (BD Bioscience) and assayed according to the manufacturer’s instructions. Cells double-stained for both annexin V and PI were analyzed by flow cytometry. PI was used in conjunction with annexin V–FITC to distinguish cells in the earlier stages of apoptosis (annexin V-FITC positive, PI negative) from those in later stages of apoptosis or that were already dead (annexin V–FITC positive, PI positive). Percentage of cells positive for caspase-3 activation was evaluated by Active Caspase-3 Apoptosis Kit (BD biosciences, Milan, Italy) according to the manufacturer’s instructions.

[1] = tested on: HeLa epithelial cervix carcinoma; assay: Antiproliferative activity, MTT; format: cell-based; conditions: Homo sapiens, 48 h treatment, read-out: Antiproliferative Activity (IC50 ± SD) HeLa
Protocol: (§1) U937 histiocytic lymphoma, HL60 acute promyelocytic leukemia, H1299 lung adenocarcinoma, MCF7 breast carcinoma, HT1080 fibrosarcoma, M14 melanoma, HeLa epithelial cervix carcinoma and peripheral blood B lymphocyte AHH1 human cell lines were obtained from the Deutsche Sammlung für Mikroorganismen and Zellkulturen (DSZM, Braunschweig, Germany) and were maintained in RPMI 1640 medium contained 10% fetal bovine serum (FBS), 2 mM L-glutamine, and antibiotics in a humidified atmosphere with 5% CO2 at 37 °C. HCT116 (ATCC, VA, USA) cells were propagated in Dulbecco’s modified Eagle medium (DMEM) (Euroclone, Milan, Italy) with 10% fetal bovine serum (FBS; Euroclone, Milan, Italy), 2 mM L-glutamine (Euroclone, Milan, Italy), and antibiotics (100 U/mL penicillin, 100 µg/mL streptomycin) (Euroclone, Milan, Italy). The experiments were performed with early (3–20) cell passages. Cell lines were treated with compounds at the indicated concentrations in the exponential growth phase.
(§2) Then, increasing concentrations of different compounds (ranging from 0.01 to 100 μM) were added, and cell proliferation was evaluated by a MTT assay after 48 h. Cells exposed to DMSO were used as control. The effect of compounds was evaluated using the CellTiter-Glo luminescent cell viability assay (Promega, Madison, WI, USA) according to the manufacturer’s instructions. For HCT116, 5 × 10^4 cells/well were plated in 24-well plate and treated, in duplicate, with compounds at several concentrations for 24 and 48 h of induction. After treatments, MTT solution was added for 3 h at 0.5 mg/mL, the obtained crystals were dissolved in DMSO (Sigma-Aldrich, Milan, Italy), and the absorbance was read at a wavelength of 570 nm with reader TECAN M-200. All the experiments were performed in triplicate and repeated at least three times.
(§3) IC50 values of compounds against cellular viability were determined by using nonlinear regression fitting curves with GraphPad Prism 8. The t-test used for statistical analyses was performed with GraphPad Prism 8. All the tests were one-tailed and a p-value < 0.05 was considered statistically significant.

U937 AML cells = assay: Antiproliferative activity, MTT; format: cell-based; conditions: Homo sapiens, U-937, 48 h treatment, read-out: Antiproliferative Activity (IC50 ± SD) U937
Protocol: as §1, §2, §3

[2] = tested on: H1299 human non-small cell lung carcinoma; assay: Antiproliferative activity, MTT; format: cell-based; conditions: 48 h treatment, read-out: Antiproliferative Activity (IC50 ± SD) H1299
Protocol: as §1, §2, §3

HL60 APL cells = assay: Antiproliferative activity, MTT; format: cell-based; conditions: Homo sapiens, HL-60, 48 h treatment, read-out: Antiproliferative Activity (IC50 ± SD) HL60
Protocol: as §1, §2, §3

[3] = tested on: MCF-7 human breast adenocarcinoma; assay: Antiproliferative activity, MTT; format: cell-based; conditions: MCF7, 48 h treatment, read-out: Antiproliferative Activity (IC50 ± SD) MCF-7
Protocol: as §1, §2, §3

M14 human melanoma = assay: Antiproliferative activity, MTT; format: cell-based; conditions: 48 h treatment, read-out: Antiproliferative Activity (IC50 ± SD) M14
Protocol: as §1, §2, §3

[4] = tested on: HT1080 human fibrosarcoma; assay: Antiproliferative activity, MTT; format: cell-based; conditions: HT-1080, 48 h treatment, read-out: Antiproliferative Activity (IC50 ± SD) HT1080
Protocol: as §1, §2, §3

[5] = tested on: HCT116 human colorectal carcinoma; assay: Antiproliferative activity, MTT; format: cell-based; conditions: HCT-116, 48 h treatment, read-out: Antiproliferative Activity (IC50 ± SD) HCT116
Protocol: as §1, §2, §3

[6] = tested on: luciferase reporter under methylated CMV promoter in KG-1 leukemia cells; assay: CMV-luc assay in KG-1 cells; format: cell-based; conditions: KG-1 CMV-luc, vs DMSO
Protocol: The assay was carried out as described by Rilova et al.. The KG-1 cell line was stably transfected with the luciferase firefly (Luc^+ from pGL3 by Promega, Madison, WI, USA) reporter gene under the control of a methylated CMV promoter (from pEGFP-N1 by Clontech) and selected for the maintenance of the methylation of CMV and luciferase expression silencing (KG-1 CMV-luc). The stably integrated KG-1 CMV-luc cells are cultivated in RPMI-1640 medium (Lonza, Strasbourg, France), supplemented with 10% FCS (Lonza, Strasbourg, France) and 0.5 mg/mL of geneticin (Sigma-Aldrich, Saint-Quentin Fallavier, France), under 5% CO2, at 37 °C and seeded at 20,000 cells per well in 96-well plates. After 5 or 24 h of incubation in the presence of compounds or the solvent DMSO, the induction of the promoter is measured by quantification of luciferase with the Brite-lite assay system (PerkinElmer, Villebon-sur-Yvette, France) according to the manufacturer’s protocol. The luminescence is measured on an EnVision Multilabel Plate Reader (PerkinElmer, Villebon-sur-Yvette, France), and the data are expressed as fold induction compared to DMSO control. The mean of 2–4 experiments and its standard error are reported.

Row | SMILES | percentage of sub-G1 peak (U937 cells; 48 h) [%] | IC50 [1] [µM] | IC50 (U937 AML cells) [nM] | IC50 [2] [µM] | IC50 ([2]; Homo sapiens, NCI-H1299, 48 h) [µM] | IC50 (HL60 APL cells) [nM] | IC50 [3] [nM] | IC50 (M14 human melanoma) [µM] | IC50 [4] [nM] | IC50 [5] [nM] | Luciferase Expression (Fold ± SD) ([6]; 0.5 µM) [fold] | Luciferase Expression (Fold ± SD) ([6]; 1 µM) [fold] | Luciferase Expression (Fold ± SD) ([6]; 5 µM) [fold] | Luciferase Expression (Fold ± SD) ([6]; 10 µM) [fold] | Luciferase Expression (Fold ± SD) ([6]; 25 µM) [fold] | effect on sub-G1 peaks vs untreated cells (U937 cells)
1 | O=C(Nc1ccc(Nc2ccnc3ccccc23)cc1)c1cccc(Nc2ccnc3ccccc23)c1 [Compound 2a] | 62 | 0.14 ± 0.04 | 700 ± 90 | 14.7 ± 2.3 | 15 | 200 ± 30 | 4100 ± 700 | 0.5 ± 0.08 | 500 ± 90 | 1000 ± 200 | 1.02 ± 0.04 | 1.05 ± 0.12 | 19.94 ± 4.26 | 4.66 ± 1.63 | 1.59 ± 0.59 | 
2 | O=C(Nc1cccc(Nc2ccnc3ccccc23)c1)c1cccc(Nc2ccnc3ccccc23)c1 [Compound 2b] |  | 2 ± 0.3 | 1500 ± 100 |  | 5.3 ± 0.9 | 1600 ± 200 | 300 ± 60 | 4.7 ± 0.6 | 2700 ± 400 | 1500 ± 300 |  |  |  |  |  | 
3 | O=C(Nc1cccc(Nc2ccnc3ccccc23)c1)c1ccc(Nc2ccnc3ccccc23)cc1 [Compound 2c] |  | 4.2 ± 0.8 | 1500 ± 100 |  | 14 ± 1.8 | 1900 ± 300 | 2200 ± 400 | 3.8 ± 0.7 | 2600 ± 600 | 2300 ± 500 |  |  |  |  |  | 
4 | O=C(Nc1ccc(NC(=O)c2cccc(Nc3ccnc4ccccc34)c2)cc1)OCc1ccccc1 [Compound 4a] |  | 77 ± 7.9 | 500 ± 80 |  | 45 ± 4.1 | 300 ± 60 |  | 69 ± 8.1 | 19500 ± 2800 | 23900 ± 2600 | 1.05 ± 0.12 | 1.02 ± 0.07 | 1.04 ± 0.16 | 1.45 ± 0.39 | 1.60 ± 1.00 | very low
5 | O=C(Nc1cccc(NC(=O)c2ccc(Nc3ccnc4ccccc34)cc2)c1)OCc1ccccc1 [Compound 4c] |  | 7.4 ± 1.2 | 1200 ± 200 |  | 6.9 ± 0.9 | 300 ± 70 |  | 4.5 ± 0.8 | 3900 ± 800 | 17700 ± 2400 | 0.96 ± 0.01 | 0.87 ± 0.05 | 40.40 ± 12.75 | 28.51 ± 3.39 | 8.07 ± 1.96 | no
